Results as given in a melting point compilation (Tetko et al.; mined from patent text by program, amines drawn as free bases though some values may be those of a salt).

| melting point [°C] | Structure (SMILES) |
| --- | --- |
| 229 | O=C(O)c1cc(Cl)c(Cl)c(-c2ccc(Cl)cc2)n1 |
| 211 to 212 | O=C(O)c1ccc(Cn2ccn(C3CCc4ccccc4C3)c2=S)cc1 (configuration not stated) |
| 120 to 122 | C[Si](C)(C)CCOCn1ccc(=O)[nH]c1=O |
| > 300 | FC(F)(F)c1c(CNC2Cc3ccccc3C2)ccn2c(CC3CC3)nnc12 |
| 117 to 121 | CCn1c(CO)nc2cccnc21 |
| 93 to 94 | O=C(NCCSCc1cccc(Cl)c1)c1c(C(F)(F)F)cccc1C(F)(F)F |
| 94 to 95 | CCC(O)(CC)c1ccc(-c2cc(-c3c[nH]nc3-c3cccc(C)n3)ccc2F)nc1 |
| 248 | CC1(C)CCCN(C(=O)CN(C(=O)CNC(=O)Nc2cccc(CO)c2)c2ccccc2)C1 |
| 158 to 160 | CP(C)(=O)CN1CCC(c2nn(-c3ccc(C(F)(F)F)cc3)c3ccccc23)CC1 |
| 154 to 157 | COC(=O)c1cccc2nc(Cl)n(Cc3ccc(-c4ccccc4C#N)cc3)c12 |
| 116 | CN1CCCCC1CCc1ccccc1NC(=O)c1ccc(F)cc1 (configuration not stated) |
| 164 to 165 | O=C1C(c2ccccc2)=C(c2ccccc2)C(=O)N1CCc1ccccc1 |
| 183 to 184 | CC(C)CC(=O)Nc1c(C(=O)c2cc(Cl)ccn2)[nH]c2cc(Cl)ccc12 |
| 264 to 266 | O=[N+]([O-])c1cc(C(F)(F)F)ccc1Sc1nc(-c2ccc(Cl)cc2)c(-c2ccc(Cl)cc2)[nH]1 |
| 177 to 178 | CN(C(=O)Nc1ccccc1CCc1cc(C(C)(C)C)c(O)c(C(C)(C)C)c1)C1CCN(Cc2ccc(F)cc2)CC1 |
| 178 to 181 | CCc1nc2c(N)nc3ccccc3c2n1CCCC#Cc1cccc(C(F)(F)F)c1 |
| 231 to 236 | O=C(O)CN1C(=O)C(=Cc2ccc(OCc3ccccc3)c(OCc3ccc(F)c(F)c3)c2)SC1=S |
| 69 to 72 | C[C@H](C(=O)O)C(C)(C)c1ccccc1 |

| melting point [°C] | Structure (SMILES) |
| --- | --- |
| 142 to 143 | CC(=O)SCC(Cc1ccccc1)C(=O)NCc1ccc(C(=O)OCc2ccccc2)cc1 (configuration not stated) |
| 182 | CSc1ccc2c(=O)c(OS(C)(=O)=O)cn(C)c2c1 |
| 205 | O=C(O)c1cn(CCCO)c(=O)c2ccccc12 |
| 205 to 207 | N=C(N)c1cccc(S(=O)(=O)c2ccc(OC[C@@H]3C[C@@H](CC(=O)O)C(=O)N3CCCc3ccccc3)cc2)c1 |
| 141 to 142 | CC(=O)Oc1ccc2cccc(OCC(=O)c3ccccc3)c2n1 |
| 255 | CNS(=O)(=O)c1cccc(NC(=O)c2cnn3c(C(F)F)cc(-c4ccc(C(F)(F)F)cc4)nc23)c1 |
| 56.9 | Oc1ccc(C=C2C3=CC=CCC3=CCc3ccccc32)cc1 |
| 253 to 255 | CNC(=O)Nc1c2c(nc3sccc13)CCCC2 |
| 149 | CS(=O)(=O)Nc1cccc(CC2c3ccccc3CCc3ccccc32)c1 |
| 244 to 245 | Cc1ccc(-c2nc(C)c(-c3ccnc(Nc4ccc(N5CCOCC5)cc4)n3)s2)cn1 |
| 268 | Cc1nc2ccnn2c(=O)[nH]1 |
| 280 to 284 | NN=Cc1ccc(C(=O)NC2CCC3(CC2)CN(CC(=O)O)C(=O)O3)cc1 (configuration not stated) |
| 114 | Cc1nc2cccc(OCC=CCN3CCN(C4c5ccccc5CCc5ccccc54)CC3)c2s1 |
| 159 to 161 | OCCc1c[nH]c2cc(-c3cc(Nc4ccc(N5CCOCC5)cn4)c4nccn4c3)ccc12 |
| 165 to 167 | CC(C)(CCCCOCCCCc1ccc(N2CCOCC2)cc1)NCC(O)c1ccc(O)c(NS(C)(=O)=O)c1 (configuration not stated) |
| 108 to 110 | CCc1ccc(C(=O)Nc2ccc(F)c(F)c2)cc1N |
| 83 to 85 | COc1cc(OC)cc(N2CCN(C(=O)N(C)c3cc4ccccc4cc3OC)CC2)c1 |
| 151 to 153 | O=C(O)c1cccc(OCc2ccc(Cl)cc2Cl)c1OCc1ccccc1 |

| Structure (SMILES) | melting point [°C] |
| --- | --- |
| Cc1sc(C)c(CCl)c1CCl | 68 to 70 |
